Measurements reported in US20260193229A1, “BRISC DEUBIQUITINATING ENZYME INHIBITORS” (THE TRUSTEES OF THE UNIVERSITY OF PENNSYLVANIA, priority 2022, published 2026).

The compounds below were run against T1, BRISC (Homo sapiens, UniProt P46736+Q15018) (assay: BRISC DUB inhibition assay with quenched K63-linked di-ubiquitin substrate (TAMRA fluorescence)). Details: Table 1, Activity Range Table.
T1 construct: made in house; host or cells: insect cells (MultiBac baculovirus)
Format: biochemical
Method: High throughput screening. A baculoviral expression system was established to purify milligram quantities of the entire BRISC complex from insect cells. The MultiBac system was used to clone all 4 components of the BRISC complex into one vector which was then packaged into the baculovirus genome using the methods described in Zeqiraj et al., 2015 (Mol. Cell).
The assay buffer included: 50 mM HEPES-NaOH, pH 7.0; 100 mM NaCl; 1 mM DTT; 1 mg/ml BSA; and 0.03% Brij-35. BRISC was assayed at 1 nM (final concentration) with the substrate at 500 nM (final concentration). The final reaction volume was 20 μl in each 384 plate well (Corning, #3573; black, low flange, flat bottom) with a final concentration of compounds of 10 μM.
A 5 ml of enzyme solution with BRISC at 2 nM in assay buffer was made by adding 10 μl of BRISC working stock (1 μM) to 5 ml of assay buffer. A 5 ml of substrate solution was made with […] of K63-diUbiquitin (made in-house) plus […] of IQF K63-diUbiquitin by adding the appropriate volumes of diUbiquitins to 5 ml of assay buffer. 45 μL of BRISC (enzyme solution) was dispensed into columns 1-11 of a 96 well PCR plate (skirted). Buffer was only dispensed in column 12 (no enzyme control). 45 μl of substrate solution was dispensed into columns 1-12 of a 96 well PCR plate (skirted). The plate was spun down at 3000 rpm (bench top centrifuge) at room temp for 2 min to remove any air bubbles. Using a Biomek FX, liquid handler (Bekman), 10 μl of BRISC (enzyme solution) was dispensed into the 4 quadrants of a 384 well plate. 200 nl of compounds was dispensed into each well of the 384 plates using the pin tool (columns A and B usually contain DMSO only, and serve as controls), and the plates were incubated for 10-15 minutes at room temperature. 10 μl of substrate solution was dispensed into the 4 quadrants of the 384 well plate. The plate was then incubated for 30 min at room temperature in the dark and read with settings suitable for detecting TAMRA fluorescence (excitation wavelength of 540 nm and emission wavelength of 580 nm). A PHERAStar plate (BMG labtech) reader was used with a gain value of 570. The Intensity/Background (I/Bg), defined as [(Average of columns 1 and 2; DMSO controls)/(Average of columns 23 and 24; no enzyme controls)], were about 5.
The activities of the compounds disclosed in the present disclosure in inhibiting BRCC36 enzyme activity was measured in accordance with the method disclosed in Example 2.

Q: With `O=C(NC1CCNCC1)c1nn(S(=O)(=O)CCc2ccc(Cl)cc2)cc1NC(=O)c1c(Cl)cccc1Cl` [Compound 31] as the compound, how does the IC50 read?
A: Its IC50 is 1 to 10 µM.

Q: `CS(=O)(=O)n1cc(NC(=O)c2c(Cl)cccc2Cl)c(C(=O)NC2CCNCC2)n1` [Compound 2, 4-(2,6-dichlorobenzamido)-1-(methylsulfonyl)-N-(piperidin-4-yl)-1H-pyrazole-3-carboxamide] was tested. Which IC50 did it give?
A: Its IC50 is 1 to 10 µM.

Q: Which IC50 does the source give for `O=C(NCCN1CCCC1)c1nn(C(=O)c2c(Cl)cccc2Cl)cc1NC(=O)c1c(Cl)cccc1Cl` [Compound 20] here?
A: Its IC50 is 10 to 50 µM.

Q: `CN(C(=O)c1nn(C(=O)c2c(Cl)cccc2Cl)cc1NC(=O)c1c(Cl)cccc1Cl)C1CNC1` [Compound 15] was tested. Which IC50 did it give?
A: Its IC50 is 10 to 50 µM.

Q: Which IC50 does the source give for `O=C(NC1CNC1)c1nn(C(=O)c2c(Cl)cccc2Cl)cc1NC(=O)c1c(Cl)cccc1Cl` [Compound 17] here?
A: Its IC50 is 10 to 50 µM.

Q: How did the IC50 turn out when `C[N+]1(C)CCC(NC(=O)c2nn(C(=O)c3c(Cl)cccc3Cl)cc2NC(=O)c2c(Cl)cccc2Cl)CC1` [Compound 29] was run?
A: The IC50 was 10 to 50 µM.

Q: `O=C(NC1CCNCC1)c1nn(C(=O)Nc2ccc(Cl)cc2)cc1NC(=O)c1c(Cl)cccc1Cl` [Compound 35] was tested. Which IC50 did it give?
A: The IC50 was 50 to 300 µM.

Q: Which IC50 does the source give for `NCCCNC(=O)c1nn(C(=O)c2c(Cl)cccc2Cl)cc1NC(=O)c1c(Cl)cccc1Cl` [Compound 10] here?
A: The IC50 was 1 to 10 µM.

Q: Which IC50 does the source give for `O=C(NC1CCNCC1)c1nn(S(=O)(=O)c2ccccc2Cl)cc1NC(=O)c1c(Cl)cccc1Cl` [Compound 25] here?
A: The IC50 was 50 to 300 µM.

Q: `NCCCOc1ccc(S(=O)(=O)n2cc(NC(=O)c3c(Cl)cccc3Cl)c(C(=O)NC3CCNCC3)n2)cc1` [Compound 34, 1-(4-(3-aminopropoxy)phenylsulfonyl)-4-(2,6-dichlorobenzamido)-N-(piperidin-4-yl)-1H-pyrazole-3-carboxamide] was tested. Which IC50 did it give?
A: Its IC50 is 50 to 300 µM.

Q: Which IC50 does the source give for `CC1CNCCC1NC(=O)c1nn(C(=O)c2c(Cl)cccc2Cl)cc1NC(=O)c1c(Cl)cccc1Cl` (stereo not shown) [Compound 12] here?
A: The IC50 was 1 to 10 µM.

Q: With `COC(=O)c1ccccc1NC(=O)n1cc(NC(=O)c2c(Cl)cccc2Cl)c(C(=O)NCCCN2CCCC2)n1` [Compound 21] as the compound, how does the IC50 read?
A: The IC50 was 50 to 300 µM.

Q: `CN(C(=O)c1nn(C(=O)c2c(Cl)cccc2Cl)cc1NC(=O)c1c(Cl)cccc1Cl)C1CCNCC1` [Compound 11] was tested. Which IC50 did it give?
A: The IC50 was 1 to 10 µM.

Q: How did the IC50 turn out when `O=C(NC1CCNCC1)c1nn(S(=O)(=O)c2cc(Cl)cc(Cl)c2)cc1NC(=O)c1c(Cl)cccc1Cl` [Compound 3] was run?
A: Its IC50 is 1 to 10 µM.

Q: With `C#CCCCCOC(=O)COc1ccc(S(=O)(=O)n2cc(NC(=O)c3c(Cl)cccc3Cl)c(C(=O)NC3CCNCC3)n2)cc1` [Compound 32, Hex-5-ynyl 2-(4-(4-(2,6-dichlorobenzamido)-3-(piperidin-4-ylcarbamoyl)-1H-pyrazol-1-ylsulfonyl)phenoxy)acetate] as the compound, how does the IC50 read?
A: The IC50 was 10 to 50 µM.

Q: For `O=C(N[C@H]1CCNC1)c1nn(C(=O)c2c(Cl)cccc2Cl)cc1NC(=O)c1c(Cl)cccc1Cl` [Compound 9], which IC50 is on record?
A: Its IC50 is 1 to 10 µM.

Q: How did the IC50 turn out when `O=C(NC1CCNCC1)c1nn(S(=O)(=O)c2ccccc2)cc1NC(=O)c1c(Cl)cccc1Cl` [Compound 5] was run?
A: Its IC50 is 10 to 50 µM.

Q: For `O=C(NC1CCNCC1)c1nn(C(=O)Nc2cccc(Cl)c2)cc1NC(=O)c1c(Cl)cccc1Cl` [Compound 36], which IC50 is on record?
A: Its IC50 is 50 to 300 µM.

Q: For `COc1ccccc1NC(=O)n1cc(NC(=O)c2c(Cl)cccc2Cl)c(C(=O)NC2CCNCC2)n1` [Compound 19], which IC50 is on record?
A: The IC50 was 10 to 50 µM.

Q: With `O=C(NC1CCNCC1)c1nn(S(=O)(=O)c2ccc(Cl)cc2)cc1NC(=O)c1c(Cl)cccc1Cl` [Compound 4] as the compound, how does the IC50 read?
A: The IC50 was 1 to 10 µM.

Q: For `O=C(N[C@@H]1CCNC1)c1nn(C(=O)c2c(Cl)cccc2Cl)cc1NC(=O)c1c(Cl)cccc1Cl` [Compound 8], which IC50 is on record?
A: Its IC50 is 1 to 10 µM.

Q: Which IC50 does the source give for `O=C(NC1CCNCC1)c1nn(S(=O)(=O)c2cc(C(F)(F)F)ccc2Cl)cc1NC(=O)c1c(Cl)cccc1Cl` [Compound 26] here?
A: Its IC50 is 50 to 300 µM.

Q: For `CN1CCC(NC(=O)c2nn(C(=O)c3c(Cl)cccc3Cl)cc2NC(=O)c2c(Cl)cccc2Cl)CC1` [Compound 37], which IC50 is on record?
A: The IC50 was 1 to 10 µM.

Q: `O=C(Nc1cn(C(=O)c2c(Cl)cccc2Cl)nc1C(=O)N1CCNCC1)c1c(Cl)cccc1Cl` [Compound 7] was tested. Which IC50 did it give?
A: Its IC50 is 1 to 10 µM.

Q: For `O=C(NC1CCNCC1)c1nn(S(=O)(=O)c2cccc(Cl)c2)cc1NC(=O)c1c(Cl)cccc1Cl` [Compound 24], which IC50 is on record?
A: Its IC50 is 50 to 300 µM.

Q: For `O=C(NC1C2CNCC21)c1nn(C(=O)c2c(Cl)cccc2Cl)cc1NC(=O)c1c(Cl)cccc1Cl` (stereo not shown) [Compound 13], which IC50 is on record?
A: Its IC50 is 1 to 10 µM.

Q: Which IC50 does the source give for `COc1ccccc1NC(=O)n1cc(NC(=O)c2c(Cl)cccc2Cl)c(C(=O)NC2CCNCC2)n1` [Compound 18, 4-(2,6-dichlorobenzamido)-N1-(2-methoxyphenyl)-N3-(piperidin-4-yl)-1H-pyrazole-1,3-dicarboxamide] here?
A: Its IC50 is 10 to 50 µM.

Q: Which IC50 does the source give for `O=C(NC1CCNCC1)c1nn(S(=O)(=O)CCc2ccccc2)cc1NC(=O)c1c(Cl)cccc1Cl` [Compound 6] here?
A: Its IC50 is 1 to 10 µM.

Q: Which IC50 does the source give for `O=C(NC1CCNCC1)c1nn(S(=O)(=O)c2cc(Cl)cc(C(F)(F)F)c2)cc1NC(=O)c1c(Cl)cccc1Cl` [Compound 27] here?
A: Its IC50 is 50 to 300 µM.

Q: How did the IC50 turn out when `O=C(NC1CCNCC1)c1nn(S(=O)(=O)c2ccc(OCCCN3C(=O)c4ccccc4C3=O)cc2)cc1NC(=O)c1c(Cl)cccc1Cl` [Compound 30, 4-(2,6-dichlorobenzamido)-1-(4-(3-(1,3-dioxoisoindolin-2-yl)propoxy)phenylsulfonyl)-N-(piperidin-4-yl)-1H-pyrazole-3-carboxamide] was run?
A: The IC50 was 1 to 10 µM.

Q: `COC(=O)COc1ccc(S(=O)(=O)n2cc(NC(=O)c3c(Cl)cccc3Cl)c(C(=O)NC3CCNCC3)n2)cc1` [Compound 33, Methyl 2-(4-(4-(2,6-dichlorobenzamido)-3-(piperidin-4-ylcarbamoyl)-1H-pyrazol-1-ylsulfonyl)phenoxy)acetate] was tested. Which IC50 did it give?
A: Its IC50 is 50 to 300 µM.

Same assay, conditions: Table 2, method of Example 2; read-out: BRISC IC50 μM Range

Q: For `Cc1ncsc1-c1ccc(CNC(=O)[C@@H]2C[C@H](O)CN2C(=O)[C@@H](NC(=O)COCCOCCOCCn2cc(CCCCOc3ccc(S(=O)(=O)n4cc(NC(=O)c5c(Cl)cccc5Cl)c(C(=O)NC5CCNCC5)n4)cc3)nn2)C(C)(C)C)cc1` [Compound 43, 4-(2,6-dichlorobenzamido)-1-(4-(4-(1-((S)-13-((2S,4S)-4-hydroxy-2-(4-(4-methylthiazol-5-yl)benzylcarbamoyl)pyrrolidine-1-carbonyl)-14,14-dimethyl-11-oxo-3,6,9-trioxa-12-azapentadecyl)-1H-1,2,3-triazol-4-yl)butoxy)phenylsulfonyl)-N-(piperidin-4-yl)-1H-pyrazole-3-carboxamide], which IC50 is on record?
A: The IC50 was 0.1 to 1 µM.

Q: For `COC(=O)c1cnc2c(SCc3ccccn3)cccc2c1` [Compound 54], which IC50 is on record?
A: Its IC50 is 10 to 50 µM.

Q: How did the IC50 turn out when `C#CCCCCOc1ccc(S(=O)(=O)n2cc(NC(=O)c3c(Cl)cccc3Cl)c(C(=O)NC3CCNCC3)n2)cc1` [Compound 41, 4-(2,6-Dichlorobenzamido)-1-(4-(hex-5-ynyloxy)phenylsulfonyl)-N-(piperidin-4-yl)-1H-pyrazole-3-carboxamide] was run?
A: The IC50 was 1 to 10 µM.

Q: Which IC50 does the source give for `C[C@@H]1CNCCN1C(=O)c1nn(C(=O)c2c(Cl)cccc2Cl)cc1NC(=O)c1c(Cl)cccc1Cl` [Compound 55] here?
A: Its IC50 is 1 to 10 µM.

Q: With `CCOc1cc(C(C)(C)C)ccc1C1=N[C@@](C)(c2ccc(Cl)cc2)[C@@](C)(c2ccc(Cl)cc2)N1C(=O)N1CCN(CC(=O)NCCOCCOCCn2cc(CCCCOc3ccc(S(=O)(=O)n4cc(NC(=O)c5c(Cl)cccc5Cl)c(C(=O)NC5CCNCC5)n4)cc3)nn2)CC1` [Compound 42, 1-(4-(4-(1-(2-(2-(2-(2-(4-((4S,5R)-2-(4-Tert-butyl-2-ethoxyphenyl)-4,5-bis(4-chlorophenyl)-4,5-dimethyl-4,5-dihydro-1H-imidazole-1-carbonyl)piperazin-1-yl)acetamido)ethoxy)ethoxy)ethyl)-1H-1,2,3-triazol-4-yl)butoxy)phenylsulfonyl)-4-(2,6-dichlorobenzamido)-N-(piperidin-4-yl)-1H-pyrazole-3-carboxamide] as the compound, how does the IC50 read?
A: Its IC50 is 0.1 to 1 µM.

Each compound was assayed on human cells (assay: Cellular toxicity in human cells). Details: 5 μM.
Format: cell-based

Q: For `CS(=O)(=O)n1cc(NC(=O)c2c(Cl)cccc2Cl)c(C(=O)NC2CCNCC2)n1` [Compound 2, 4-(2,6-dichlorobenzamido)-1-(methylsulfonyl)-N-(piperidin-4-yl)-1H-pyrazole-3-carboxamide], which cellular toxicity is on record?
A: The cellular toxicity was “no detectable cellular toxicity”.
